Laboratory results: patent US10604554B2, “Double-acylated GLP-1 derivatives” (Novo Nordisk A/S, priority 2012, dated 2020)
Like-named read-outs stand apart in the source and are kept apart here.

Tests used:
in vivo [1] = details: male, Göttingen, minipig, iv
Description: The purpose of this study is to determine the protraction in vivo of the GLP-1 derivatives after i.v. administration to minipigs, i.e. the prolongation of their time of action. This is done in a pharmacokinetic (PK) study, where the terminal half-life of the derivative in question is determined. By terminal half-life is generally meant the period of time it takes to halve a certain plasma concentration, measured after the initial distribution phase.
Study A: Male Göttingen minipigs were obtained from Ellegaard Göttingen Minipigs (Dalmose, Denmark) approximately 7-14 months of age and weighing from approximately 16-35 kg were used in the studies. The minipigs were housed individually and fed restrictedly once or twice daily with SDS minipig diet (Special Diets Services, Essex, UK). After at least 2 weeks of acclimatisation two permanent central venous catheters were implanted in vena cava caudalis or cranialis in each animal. The animals were allowed 1 week recovery after the surgery, and were then used for repeated pharmacokinetic studies with a suitable wash-out period between successive GLP-1 derivative dosings.
The animals were fasted for approximately 18 h before dosing and from 0 to 4 h after dosing, but had ad libitum access to water during the whole period.
The GLP-1 derivatives were dissolved in 50 mM sodium phosphate, 145 mM sodium chloride, 0.05% tween 80, pH 7.4 to a concentration of usually from 20-60 nmol/ml. […] Blood samples (for example 0.8 ml) were collected in EDTA buffer (8 mM) and then centrifuged at 4° C. and 1942 G for 10 minutes.
Study B: Male Göttingen minipigs were obtained from Ellegaard Göttingen Minipigs (Dalmose, Denmark) approximately 5 months of age and weighing from approximately 9 kg were used in the studies. The minipigs were housed in pens with straw as bedding, six together in each pen and fed restrictedly once or twice daily with Altromin 9023 minipig diet (Chr. Petersen A/S, DK-4100 Ringsted) or Standard SMP(E) minipig diet (Special Diet Services (SDS), UK). The pigs were used for repeated pharmacokinetic studies with a suitable wash-out period between successive GLP-1 derivative dosings.
The GLP-1 derivatives were dissolved in 50 mM sodium phosphate, 145 mM sodium chloride, 0.05% tween 80, pH 7.4 to a concentration of usually from 20-60 nmol/ml. Intravenous injections (the volume corresponding to usually 2 nmol/kg, for example 0.1 ml/kg) of the compounds were given as intravenous injections via a Venflon inserted in an ear vein, while they are placed unanaesthetised in a sling. The dose volume was 0.1 ml/kg, and blood was sampled at predefined time points for up till 17 days post dosing (samples was taken with syringe from a jugular vein).
Individual plasma concentration-time profiles were analyzed by a non-compartmental model in Phoenix WinNonLin ver. […] (Pharsight Inc., Mountain View, Calif., USA), and the resulting terminal half-lives (harmonic mean) determined.

in vivo [2] = details: male, Sprague Dawley, rat, iv
human GLP-1 receptor = molecular target: T1, human GLP-1 receptor (Homo sapiens, UniProt P43220); test: In vitro potency (CRE luciferase; whole cells); assay type: cell-based; parameters: EC50/pM (ratio 1% HSA/0% HSA): unit not given here; details: for EC50: BHK cells; for EC50/pM (ratio 1% HSA/0% HSA): ratio of EC50 at 1% HSA to EC50 at 0% HSA
T1 construct: expressed in transfected cells; host or cells: BHK cells, clone FCW467-12A/KZ10-1 (parent line BHKTS13), further transfected with CRE luciferase
Summary of the method: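 Stably transfected BHK cells carrying human GLP-1R and a CRE–firefly luciferase reporter, 5×10^3 cells/well in assay medium, run with 0% or 1% HSA in assay buffer.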

[3] = tested on: Landrace Yorkshire Duroc (LYD) pigs; test: Pharmacodynamic (PD) study in pigs, food intake; assay type: in vivo, pig; details: single s.c. dose 3.0 nmol/kg; for PD in pig, food intake (% of vehicle) for hours 0-24: 0-24 h; for PD in pig, food intake (% of vehicle) for hours 24-48: 24-48 h
Description: The purpose of this experiment was to investigate the effect of a couple of Example compounds on food intake in pigs. This was done in a pharmacodynamic (PD) study as described below, in which food intake was measured from 1 to 4 days after administration of a single dose of the GLP-1 derivative, as compared to a vehicle-treated control group.
Female Landrace Yorkshire Duroc (LYD) pigs, approximately 3 months of age, weighing approximately 30-35 kg were used (n=3-4 per group). The animals were housed in a group for approximately 1 week during acclimatisation to the animal facilities. During the experimental period the animals were placed in individual pens at least 2 days before dosing and during the entire experiment for measurement of individual food intake. The animals were fed ad libitum with pig fodder (Svinefoder Danish Top) at all times both during the acclimatisation and the experimental period. Food intake was monitored on line by logging the weight of fodder every 15 minutes. The system used was Mpigwin (Ellegaard Systems, Faaborg, Denmark).
The phosphate buffer serves as vehicle. Animals are dosed with a single subcutaneous dose of the GLP-1 derivative or vehicle (dose volume 0.025 ml/kg) on the morning of day 1, and food intake is measured for 1 day after dosing. On the last day of each study, 1-4 days after dosing, a blood sample for measurement of plasma exposure of the GLP-1 derivative is taken from the heart in anaesthetised animals. The animals are thereafter euthanised with an intra-cardial overdose of pentobarbitone.
Food intake is calculated as mean±SEM food intake in 24 h intervals (0-24 h, 24-48 h, and 48-72 h). In Table 6 below the food intake is indicated as percentage of the food intake of the vehicle group in the same time interval (dosage 3.0 nmol/kg).
Statistical comparisons of the food intake in the 24 h intervals in the vehicle vs. GLP-1 derivative group are done using two-way-ANOVA repeated measures, followed by Bonferroni post-test.

[4] = 0% HSA, read-out: In vitro potency (CRE luciferase) EC50 (0% HSA)
[5] = In vitro potency (CRE luciferase) EC50 (1% HSA), 1% HSA

T1 sequence (P43220 24-463): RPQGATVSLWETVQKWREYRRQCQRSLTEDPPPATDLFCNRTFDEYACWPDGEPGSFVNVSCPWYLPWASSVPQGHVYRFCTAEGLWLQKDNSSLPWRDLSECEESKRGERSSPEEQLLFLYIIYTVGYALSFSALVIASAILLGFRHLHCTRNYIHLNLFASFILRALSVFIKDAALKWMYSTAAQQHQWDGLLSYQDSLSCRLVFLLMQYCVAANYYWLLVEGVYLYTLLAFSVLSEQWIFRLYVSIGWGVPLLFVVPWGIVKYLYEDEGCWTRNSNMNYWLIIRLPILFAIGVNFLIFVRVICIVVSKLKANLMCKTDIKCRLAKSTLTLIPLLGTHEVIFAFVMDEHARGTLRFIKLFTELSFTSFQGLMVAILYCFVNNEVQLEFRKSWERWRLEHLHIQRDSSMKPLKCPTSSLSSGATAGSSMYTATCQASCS

SMILES	half-life (in vivo [1]) [h]	half-life (in vivo [2]) [h]	EC50 (human GLP-1 receptor; [4]) [nM]	EC50 (human GLP-1 receptor; [5]) [nM]	EC50/pM (ratio 1% HSA/0% HSA) (human GLP-1 receptor)	PD in pig, food intake (% of vehicle) for hours 0-24 [3]	PD in pig, food intake (% of vehicle) for hours 24-48 [3]
CC[C@H](C)[C@H](NC(=O)[C@H](Cc1ccccc1)NC(=O)[C@H](CCC(=O)O)NC(=O)[C@H](CCCCNC(=O)[C@@H](N)CCCCNC(=O)CC[C@H](NC(=O)CC[C@H](NC(=O)CC[C@H](NC(=O)CCCCCCCCCCCCCCC(=O)O)C(=O)O)C(=O)O)C(=O)O)NC(=O)[C@H](C)NC(=O)[C@H](C)NC(=O)[C@H](CCC(N)=O)NC(=O)CNC(=O)[C@H](CCC(=O)O)NC(=O)[C@H](CC(C)C)NC(=O)[C@H](Cc1ccc(O)cc1)NC(=O)[C@H](CO)NC(=O)[C@H](CO)NC(=O)[C@@H](NC(=O)[C@H](CC(=O)O)NC(=O)[C@H](CO)NC(=O)[C@@H](NC(=O)[C@H](Cc1ccccc1)NC(=O)[C@@H](NC(=O)CNC(=O)[C@H](CCC(=O)O)NC(=O)C(C)(C)NC(=O)[C@@H](N)Cc1c[nH]cn1)[C@@H](C)O)[C@@H](C)O)C(C)C)C(=O)N[C@@H](C)C(=O)N[C@@H](Cc1c[nH]c2ccccc12)C(=O)N[C@@H](CC(C)C)C(=O)N[C@H](C(=O)N[C@@H](CCCNC(=N)N)C(=O)NCC(=O)N[C@@H](CCCNC(=N)N)C(=O)N[C@@H](CCCCNC(=O)[C@@H](N)CCCCNC(=O)CC[C@H](NC(=O)CC[C@H](NC(=O)CC[C@H](NC(=O)CCCCCCCCCCCCCCC(=O)O)C(=O)O)C(=O)O)C(=O)O)C(=O)O)C(C)C [Example 13, N^ε26-[(2S)-2-amino-6-[[(4S)-4-carboxy-4-[[(4S)-4-carboxy-4-[[(4S)-4-carboxy-4-(15-carboxypentadecanoylamino)butanoyl]amino]butanoyl]amino]butanoyl]amino]hexanoyl], N^ε37-[(2S)-2-amino-6-[[(4S)-4-carboxy-4-[[(4S)-4-carboxy-4-[[(4S)-4-carboxy-4-(15-carboxypentadecanoylamino)butanoyl]amino]butanoyl]amino]butanoyl]amino]hexanoyl]-[Aib^8,Arg^34,Lys^37]-GLP-1-(7-37)-peptide]	93	31	0.0022	1.38	659		
CC[C@H](C)[C@H](NC(=O)[C@H](Cc1ccccc1)NC(=O)[C@H](CCC(=O)O)NC(=O)[C@H](CCCCNC(=O)[C@@H](N)CCCCNC(=O)[C@@H](N)CCCCNC(=O)CC[C@H](NC(=O)CC[C@H](NC(=O)CCCCCCCCCCCCCCC(=O)O)C(=O)O)C(=O)O)NC(=O)[C@H](C)NC(=O)[C@H](C)NC(=O)[C@H](CCC(N)=O)NC(=O)CNC(=O)[C@H](CCC(=O)O)NC(=O)[C@H](CC(C)C)NC(=O)[C@H](Cc1ccc(O)cc1)NC(=O)[C@H](CO)NC(=O)[C@H](CO)NC(=O)[C@@H](NC(=O)[C@H](CC(=O)O)NC(=O)[C@H](CO)NC(=O)[C@@H](NC(=O)[C@H](Cc1ccccc1)NC(=O)[C@@H](NC(=O)CNC(=O)[C@H](CCC(=O)O)NC(=O)C(C)(C)NC(=O)[C@@H](N)Cc1c[nH]cn1)[C@@H](C)O)[C@@H](C)O)C(C)C)C(=O)N[C@@H](C)C(=O)N[C@@H](Cc1c[nH]c2ccccc12)C(=O)N[C@@H](CC(C)C)C(=O)N[C@H](C(=O)N[C@@H](CCCNC(=N)N)C(=O)NCC(=O)N[C@@H](CCCNC(=N)N)C(=O)N[C@@H](CCCCNC(=O)[C@@H](N)CCCCNC(=O)[C@@H](N)CCCCNC(=O)CC[C@H](NC(=O)CC[C@H](NC(=O)CCCCCCCCCCCCCCC(=O)O)C(=O)O)C(=O)O)C(=O)O)C(C)C [Example 12, N^ε26-[(2S)-2-amino-6-[[(2S)-2-amino-6-[[(4S)-4-carboxy-4-[[(4S)-4-carboxy-4-(15-carboxypentadecanoylamino)butanoyl]amino]butanoyl]amino]hexanoyl]amino]hexanoyl], N^ε37-[(2S)-2-amino-6-[[(2S)-2-amino-6-[[(4S)-4-carboxy-4-[[(4S)-4-carboxy-4-(15-carboxypentadecanoylamino)butanoyl]amino]butanoyl]amino]hexanoyl]amino]hexanoyl]-[Aib^8,Arg^34, Lys^37]-GLP-1-(7-37)-peptide]	109	28	0.0055	1.15	194		
CC[C@H](C)[C@H](NC(=O)[C@H](Cc1ccccc1)NC(=O)[C@H](CCC(=O)O)NC(=O)[C@H](CCCCNC(=O)[C@@H](N)CCCCNC(=O)COCCOCCNC(=O)COCCOCCNC(=O)CC[C@H](NC(=O)CCCCCCCCCCCCCCC(=O)O)C(=O)O)NC(=O)[C@H](C)NC(=O)[C@H](C)NC(=O)[C@H](CCC(N)=O)NC(=O)CNC(=O)[C@H](CCC(=O)O)NC(=O)[C@H](CC(C)C)NC(=O)[C@H](Cc1ccc(O)cc1)NC(=O)[C@H](CO)NC(=O)[C@H](CO)NC(=O)[C@@H](NC(=O)[C@H](CC(=O)O)NC(=O)[C@H](CO)NC(=O)[C@@H](NC(=O)[C@H](Cc1ccccc1)NC(=O)[C@@H](NC(=O)CNC(=O)[C@H](CCC(=O)O)NC(=O)C(C)(C)NC(=O)[C@@H](N)Cc1c[nH]cn1)[C@@H](C)O)[C@@H](C)O)C(C)C)C(=O)N[C@@H](C)C(=O)N[C@@H](Cc1c[nH]c2ccccc12)C(=O)N[C@@H](CC(C)C)C(=O)N[C@H](C(=O)N[C@@H](CCCNC(=N)N)C(=O)NCC(=O)N[C@@H](CCCNC(=N)N)C(=O)N[C@@H](CCCCNC(=O)[C@@H](N)CCCCNC(=O)COCCOCCNC(=O)COCCOCCNC(=O)CC[C@H](NC(=O)CCCCCCCCCCCCCCC(=O)O)C(=O)O)C(=O)O)C(C)C [Example 10, N^ε26-[(2S)-2-amino-6-[[2-[2-[2-[[2-[2-[2-[[(4S)-4-carboxy-4-(15-carboxypentadecanoylamino)butanoyl]amino]ethoxy]ethoxy]acetyl]amino]ethoxy]ethoxy]acetyl]amino]hexanoyl], N^ε37-[(2S)-2-amino-6-[[2-[2-[2-[[2-[2-[2-[[(4S)-4-carboxy-4-(15-carboxypentadecanoylamino)butanoyl]amino]ethoxy]ethoxy]acetyl]amino]ethoxy]ethoxy]acetyl]amino]hexanoyl]-[Aib^8,Arg^34,Lys^37]-GLP-1-(7-37)-peptide]	97	28	0.008	3.63		105 % of vehicle	104 % of vehicle
CC[C@H](C)[C@H](NC(=O)[C@H](Cc1ccccc1)NC(=O)[C@H](CCC(=O)O)NC(=O)[C@H](CCCCNC(=O)[C@@H](N)CCCCNC(=O)COCCOCCNC(=O)COCCOCCNC(=O)CC[C@H](NC(=O)CCCCCCCCCCCCC(=O)O)C(=O)O)NC(=O)[C@H](C)NC(=O)[C@H](C)NC(=O)[C@H](CCC(N)=O)NC(=O)CNC(=O)[C@H](CCC(=O)O)NC(=O)[C@H](CC(C)C)NC(=O)[C@H](Cc1ccc(O)cc1)NC(=O)[C@H](CO)NC(=O)[C@H](CO)NC(=O)[C@@H](NC(=O)[C@H](CC(=O)O)NC(=O)[C@H](CO)NC(=O)[C@@H](NC(=O)[C@H](Cc1ccccc1)NC(=O)[C@@H](NC(=O)CNC(=O)[C@H](CCC(=O)O)NC(=O)C(C)(C)NC(=O)[C@@H](N)Cc1c[nH]cn1)[C@@H](C)O)[C@@H](C)O)C(C)C)C(=O)N[C@@H](C)C(=O)N[C@@H](Cc1c[nH]c2ccccc12)C(=O)N[C@@H](CC(C)C)C(=O)N[C@H](C(=O)N[C@@H](CCCNC(=N)N)C(=O)NCC(=O)N[C@@H](CCCNC(=N)N)C(=O)N[C@@H](CCCCNC(=O)[C@@H](N)CCCCNC(=O)COCCOCCNC(=O)COCCOCCNC(=O)CC[C@H](NC(=O)CCCCCCCCCCCCC(=O)O)C(=O)O)C(=O)O)C(C)C [Example 19, N^ε26-[(2S)-2-amino-6-[[2-[2-[2-[[2-[2-[2-[[(4S)-4-carboxy-4-(13-carboxytridecanoylamino)butanoyl]amino]ethoxy]ethoxy]acetyl]amino]ethoxy]ethoxy]acetyl]amino]hexanoyl], N^ε37-[(2S)-2-amino-6-[[2-[2-[2-[[2-[2-[2-[[(4S)-4-carboxy-4-(13-carboxytridecanoylamino)butanoyl]amino]ethoxy]ethoxy]acetyl]amino]ethoxy]ethoxy]acetyl]amino]hexanoyl]-[Aib^8,Arg^34,Lys^37]-GLP-1-(7-37)-peptide]	56	13	0.025	0.051	2.5	52 % of vehicle	64 % of vehicle
